According to patent US6727059B1, “METHOD FOR CONTROLLING THE FIDELITY AND PROCESSIVITY OF REVERSE TRANSCRIPTASE BY INCORPORATION AND POLYMERIZATION OF NUCLEOTIDE ANALOGS ACCEPTED AS SUBSTRATES FOR THE REVERSE TRANSCRIPTION REACTION WITHOUT BLOCKING ITS ELONGATION” (priority 2002, dated 2004):

Legend:
Format in all cases: biochemical
[1] = target: T1, Klenow fragment of E.coli DNA-dependent DNA polymerase (Escherichia coli, UniProt P00582); test: Identification of termination sites of polymerization with base analogs, Klenow fragment; conditions: pbs primer; for termination rate with the analog compared to the normal dNTP: analog replaces its normal dNTP, each dNTP 500 μM, 30 min 25° C., positions +20 to +55
T1 construct: the Klenow fragment of E.coli DNA-dependent DNA polymerase (KF)
T1 sequence (P00582 324-928): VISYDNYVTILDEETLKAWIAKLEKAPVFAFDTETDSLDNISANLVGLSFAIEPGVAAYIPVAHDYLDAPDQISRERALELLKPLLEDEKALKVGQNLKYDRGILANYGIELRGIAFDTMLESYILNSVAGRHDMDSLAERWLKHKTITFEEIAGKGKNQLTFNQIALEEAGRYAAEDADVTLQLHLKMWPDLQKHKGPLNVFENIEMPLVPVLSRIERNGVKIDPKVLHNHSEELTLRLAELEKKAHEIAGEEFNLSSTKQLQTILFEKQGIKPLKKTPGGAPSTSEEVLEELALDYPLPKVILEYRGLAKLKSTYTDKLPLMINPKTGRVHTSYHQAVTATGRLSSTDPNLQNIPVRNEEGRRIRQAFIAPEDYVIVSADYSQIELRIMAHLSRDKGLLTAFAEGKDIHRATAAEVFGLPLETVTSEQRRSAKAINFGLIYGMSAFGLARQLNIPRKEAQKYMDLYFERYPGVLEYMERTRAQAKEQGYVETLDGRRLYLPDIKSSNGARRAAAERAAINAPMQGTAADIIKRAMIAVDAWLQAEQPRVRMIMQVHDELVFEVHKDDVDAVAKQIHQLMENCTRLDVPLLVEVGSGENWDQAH
Description: These matrices were used for parallel studies of HIV-1 reverse transcriptase and of the Klenow fragment of E.coli DNA-dependent DNA polymerase (KF). There have been many studies relating to the fidelity and processivity of the Klenow fragment (Abbotts and Wilson, 1988; Lecomte and Ninio, 1987, 1988; Papanicolaou and Ripley, 1989 and 1991).
(§1) The termination sites were identified during polymerization catalyzed by the HIV-1 reverse transcriptase and the Klenow fragment by changing one of the dNTPs for its base analog. dTTP was replaced with dUTP, dGTP was replaced with dITP or c7dGTP and dATP was replaced with c7dATP. In this study, the synthesis is primed with pbs.
(§2) The reaction begins by formation of the reaction complex between the matrix/primer labeled at the 5′ end (0.05 pmol) with the enzyme (0.01 U/μl) by incubation at 37° C. for 3 min for the 3 RTs and at 25° C. for the Klenow fragment. A solution containing the 3 dNTPs and one of the analogs, each at the final concentration of 500 μM, and trapping DNA (100:1:trapping DNA:matrix/cold primer) is then added. The use of trapping DNA makes it possible to prevent the reinitialization of the polymerization at the termination sites. In parallel, a control in the presence of the 4 “normal” dNTPs was carried out under reaction conditions identical to the reaction in the presence of analogs. The mixture is incubated for 30 min at 37° C. for the HIV-1 reverse transcriptase and at 25° C. for the Klenow fragment. The reaction is stopped by adding ⅓ volume of stop solution (v/v), and then the reaction products are loaded onto a denaturing 8 M urea 13% acrylamide gel. Position of the termination sites is identified by the co-migration of the sequencing products (Sanger method).
(§3) Each reaction was carried out 3 times; variations in the strength of the termination rates are observed, but they are small and less than 10%. For the HIV-1 reverse transcriptase and the Klenow fragment, the synthesis termination rates with the various analogs (black rods) as a function of the sequence are given in the presence of the termination rates obtained in the control reaction, i.e. in the presence of the “normal” bases (white rods).
Overall, the presence of the base analogs reduces the efficiency of the Klenow fragment polymerization, making it difficult to detect termination sites beyond the position +55, and for this reason, we have represented, in the various figures which follow, only the termination sites located between position +20 and +55.

[2] = target: T2, HIV-1 reverse transcriptase (Human immunodeficiency virus type 1 group M subtype B, UniProt P04585); test: Analysis of mismatches: restriction test and sequencing of mutated plasmids from the minus A reaction; conditions: for fidelity of the HIV-1 reverse transcriptase / profile of mutations: analog instead of normal dNTP
Method: Matrix/labeled primer (0.5 pmol), reverse transcriptase (0.04 U/μl) and the 3 dNTPs (500 μM final) were incubated for 30 min at 37° C., and then the dATP (500 μM final) was added and the incubation continued for 30 min at 37° C. The reaction is then stopped by adding EDTA at the concentration of 10 mM final. The reaction products are recovered after alcohol precipitation and digested with the Sac I enzyme. After denaturation at 90° C. for 3 min, the product is loaded onto a denaturing 10% acrylamide gel. After migration and auto-radiography, the 200-base bands are recovered on the gel and then purified. These fragments are amplified by PCR (15 cycles), cleaved with Mlu I and Bam H I and inserted into pBluescript SK+ppt by ligation with T4 DNA ligase, followed by transformation with XL-1 Blue.
The mutated plasmids are easily selected since they no longer have the restriction site recognized by the Nco I enzyme (see FIG. 4.5). In addition, the absence of enzymatic digestion with Sph I implies a double mutation.
The polymerization reaction was carried out in the absence of dATP, as for the reaction in the presence of the “natural” bases, but the dGTP was replaced with dITP or the dTTP was replaced by dUTP. After 30 min at 37° C. in the presence of the HIV-1 reverse transcriptase and of 3 of the 4 bases, the matrix/labeled primer is purified on a Sephadex G50 column, so as to eliminate the nucleotides which have not been incorporated, and in particular the dITP and dUTP which would modify the Sac I restriction site. The elongation is then continued for 30 min at 37° C. in the presence of the 4 natural dNTPs, at the final concentration of 500 μM, and of the enzyme (0.05 U/μl). After alcohol precipitation, digestion with the Sac I restriction enzyme and recovery of the 200-base band, a PCR is carried out under the same conditions as for the reaction in the presence of the “natural” bases. […]

[3] = target: T2, HIV-1 reverse transcriptase; test: Identification of termination sites of polymerization with base analogs, HIV-1 reverse transcriptase; conditions: pbs primer; for number of new termination sites appearing / termination rate with the analog compared to the normal dNTP, overall: analog replaces its normal dNTP; for termination rate with the analog compared to the normal dNTP, overall: each dNTP 500 μM, 30 min 37° C.
Description: The termination sites and the termination rates at each site were studied in the presence of 4 natural dNTPs present in excess, or in the presence of three of these natural dNTPs, the fourth being replaced with an analog: dUTP as a replacement for dTTP, dITP and c7dGTP as a replacement for dGTP and, finally, c7dATP in place of dATP (FIGS. 1.2 and 1.3). These analogs affect the formation of the hydrogen bonds in the two grooves of the double helix.
as §1, §2, §3

[4] = target: T2, HIV-1 reverse transcriptase; test: Kinetics of misincorporation (error rate) in the minus A reaction with base analogs; conditions: absence of dATP; for error rate at the first misincorporation site opposite T-135, start of the kinetics: starting value
Description: In order to understand the role of the three dNTPs present involved in the misincorporation subsequent to the absence of the fourth dNTP, dGTP and/or dCTP were replaced with dITP and dUTP, respectively, in the reaction minus A. dITP was chosen because I can pair with T and therefore compensate for the absence of A, and dUTP was chosen in order to assess the affect that the absence of the methyl of a T may have on the fidelity of incorporation of the neighboring pair. For this reason, we are interested not only in the sites and rates of misincorporations, but in the kinetics with which these misincorporations take place. The conditions most suited to the lack of fidelity of the HIV-RT were selected: use of the matrix+env (ppt primer) and absence of dATP (data not shown).
After hybridization of the ppt primer labeled at the 5′ end (1 pmol), with the matrix+env (2 pmol), the HIV-1 reverse transcriptase is added at the final concentration of 0.1 U/μl. Solutions containing dCTP, dGTP, dTTP (control), dCTP, dITP, dTTP or dCTP, dGTP, dUTP or dCTP, dITP, dUTP, each at the final concentration of 500 μM, were added to equivalent (¼ of the mixture) fractions. […] After denaturation at 92° C. for 5 min, the reaction products are loaded onto an 8M urea denaturing 13% acrylamide gel.
FIG. 4.4 represents the variation in the misincorporation rate in front of T-135 (matrix), the first misincorporation site, as a function of time and of the base analog used.

[5] = 7 plasmids sequenced, minus A, dITP instead of dGTP
[6] = of 36 plasmids isolated, minus A, Nco I and Sph I digestion test
[7] = sequenced plasmids, absence of dATP and dGTP
[8] = matrix +env, ppt primer, dNTPs 500 μM each

## O=c1[nH]cnc2c1ncn2[C@H]1C[C@H](O)[C@@H](COP(=O)(O)OP(=O)(O)OP(=O)(O)O)O1 [dITP]
[1]
  termination rate with the analog compared to the normal dNTP: increases in the termination rates of the sites located before the incorporation of a dITP
[2]; 7 plasmids sequenced, minus A
  deletion or insertion in the plasmids sequenced: No deletion or insertion is detected
[2]; [5]
  times C is incorporated at the 1st site of misincorporation (T-135 matrix): 4 times
  times the I base is incorporated at the 1st site of misincorporation (T-135 matrix): 3 times
[2]; absence of dATP
  order of substitution at the T sites of the matrix: C>>I>>T
  fidelity of the HIV-1 reverse transcriptase / profile of mutations: increased
[2]; in vitro, absence of dATP, dITP instead of dGTP
  mutation rate: decreases the mutation rate
[2]; [6]
  plasmids mutated at least on the first site at which A is requested: 4 plasmids
  plasmids mutated on at least the first three sites: 3 plasmids
  plasmids mutated on the first two sites: one
[2]; [7]
  number of T:I pairings: three
  number of T:T pairings: one
[2]; sequenced plasmids, minus A
  number of T:C mismatches, all mismatches whatever their position: eight
[3]; 500 μM
  number of new termination sites appearing: Two
[3]
  termination rate with the analog compared to the normal dNTP, overall: higher
[3]; dITP instead of dGTP, 500 μM
  factor of increase in the termination rates of 10 sites: ~4
  termination strength at the exit of the series of 6As, on average: doubled
[4]; dITP instead of dGTP, after 45 min of incubation
  decrease of the error rate observed with dGTP at the first misinsertion site: ~50%
[4]; [8]
  error rate at the first misincorporation site opposite T-135 after 10 min: 40%
  error rate at the first misincorporation site opposite T-135, start of the kinetics: 0%

## Nc1nc2c(ccn2C2CC(O)C(COP(=O)(O)OP(=O)(O)OP(=O)(O)O)O2)c(=O)[nH]1 (centres unmarked) [c7dGTP]
[1]
  termination rate with the analog compared to the normal dNTP: All the stops on the sites at which the c7dGMP is incorporated into the polymerized strand are increased
[1]; c7dGTP instead of dGTP, 500 μM
  decrease of the termination rate at C32: 26%
[3]; 500 μM
  number of new termination sites appearing: 4 sites
[3]
  termination rate with the analog compared to the normal dNTP, overall: considerable increase at the start of elongation, and then a clear tendency toward decreasing the termination rate
[3]; c7dGTP instead of dGTP, 500 μM
  decrease of the termination rate at other sites: up to 10 fold
  decrease of the termination rate opposite C21: 10%
  decrease of the termination rate opposite C49: 90%
  increase of the termination rate at 6 of the 18 termination sites: up to 3.5 fold

## Nc1ncnc2c1ccn2[C@H]1C[C@H](O)[C@@H](COP(=O)(O)OP(=O)(O)OP(=O)(O)O)O1 [c7dATP]
[1]
  termination rate with the analog compared to the normal dNTP: increase in the termination rates in 3 waves
[3]; 500 μM
  number of new termination sites appearing: 3 sites
[3]
  termination rate with the analog compared to the normal dNTP, overall: little effect overall
[3]; c7dATP instead of dATP, 500 μM
  decrease of the termination rate on A75: ~2 fold
  increase of termination strength opposite A41: 7 ×
  increase of termination strength opposite T76: 2 ×
  increase of the termination rate at A41: ~7 fold
  part of the elongation complexes stopped at new site T63: half
  termination rate on A35: remains stable

## O=c1ccn([C@H]2C[C@H](O)[C@@H](COP(=O)(O)OP(=O)(O)OP(=O)(O)O)O2)c(=O)[nH]1 [dUTP]
[1]
  termination rate with the analog compared to the normal dNTP: significantly increases the termination rate of most of the sites which precede the incorporation of the dUMP
[2]; 6 plasmids sequenced, minus A, dUTP instead of dTTP
  T:U mismatch: No base U is incorporated
[2]; absence of dATP
  fidelity of the HIV-1 reverse transcriptase / profile of mutations: only slightly modifies the profile and the specificity of the mutations
[2]; of 36 plasmids, minus A
  plasmids without any mutations on the Sph I and Nco I sites: 15 plasmids
[2]; of 36 plasmids, minus A, Sph I and Nco I digestion
  plasmids with at least two mutations: 21 plasmids
[2]; sequenced plasmids, minus A
  number of T:C mismatches, all mismatches whatever their position: 6
  number of T:G mismatches, all mismatches whatever their position: 17
[3]
  termination rate with the analog compared to the normal dNTP, overall: lower than with dTTP
[3]; dUTP instead of dTTP, 500 μM
  decrease of the termination rate of most of the sites located before and after the incorporation of the analog (maximum): ≤ 5%
  number of sites with a decrease of more than half of their termination rate: Seven
[4]; [8]
  error rate at the first misincorporation site opposite T-135 after 10 min: 65%
  error rate at the first misincorporation site opposite T-135, start of the kinetics: 5%
[4]; matrix +env, ppt primer, dNTPs 500 μM each, 45 min
  error rate at the first misincorporation site opposite T-135 after 45 min: ~77%
